Assay results: patent publication US20260193254A1, “2-OXOQUINAZOLINE CRYSTALLINE FORMS” (IDEAYA Biosciences, Inc., priority 2022, published 2026)
≈ marks a conversion by molar mass, not a printed value.

How the values were obtained:
Format in all cases: physicochemical
[1] = Hygroscopicity: water sorption and desorption by dynamic vapor sorption (DVS); settings: for hygroscopicity: DVS at 25° C., cycle 40-0-95-0-40% RH; for form change after the DVS test: XRPD after DVS
Experimental: In some embodiments, the crystalline form described herein is further characterized by is further characterized by a dynamic vapor sorption (DVS) profile. In some embodiments, a DVS is recorded according to the method as described herein with a cycle of 40-0-95-0-40% RH at 25° C.
Water sorption and desorption behaviors of Form A, Form C, Form D, and Form T were investigated by DVS at 25° C. with a cycle of 40-0-95-0-40% RH. Dm/dt was 0.002. Minimum equilibration time was 60 min. Maximum equilibration time was 360 min. XRPD was measured after DVS test to determine potential form change.

[2] = Variable humidity and temperature XRPD experiments
Experimental: Based on DVS and DSC results of Form C, Form C starts to loss water when humidity is below 30% or when temperature is higher than about 44° C. […] In order to determine identity of potential form changes after the dehydration and upon the solid-solid transition, variable humidity and variable temperature XRPD techniques were applied. XRPD patterns of the sample were measured online under 25° C./ambient environment (initial)-120° C./N2 protection-25° C./ambient environment-25° C./80% RH (40 min)-25° C./0% RH (15 h), and 25° C./ambient environment (initial)-250° C./N2 protection-25° C./ambient environment. […] Form L coverts back to Form C after exposure to 25° C./80% RH for 40 min.
Based on DVS and DSC results of Form D, Form D starts to loss water when humidity is below 10% or when temperature is higher than 46° C. In order to determine identity of the dehydration product, variable humidity and variable temperature XRPD techniques were applied. XRPD patterns of the sample were measured online with a temperature cycle of 25° C./ambient environment (initial)-130° C./N2 protection (10 min)-25° C./N2 protection-25° C./ambient environment (3h) and two water sorption and desorption cycles of 50% RH (initial)-90% RH (3h)-60% RH (2h)-40% RH (2h)-20% RH (3h)-10% RH (3h)-0% RH (6h)-10% RH (3h)-20% RH (3h)-50% RH at 25° C. […] (higher than dehydration temperature). Form S converts back to Form D after exposure to ambient condition for 3 h.
In order to investigate potential form change of Form A upon heating, variable temperature XRPD technique was applied. XRPD patterns of the sample were measured online with a temperature cycle of 25° C. (initial)-50° C./N2 protection-70° C./N2 protection-250° C./N2 protection-25° C./N2 protection-25° C./ambient condition (3h). […] Form A converts to Form U when temperature is 250° C., and Form U converts to Form T after cooling to 25° C.

[3] = Grinding simulation experiments - dry grinding; settings: for tolerance to dry grinding: ground manually with mortar and pestle, 5 min or 1 min, XRPD
Experimental: About 20 mg of Form A, Form D, and Form T were ground manually with a mortar and a pestle for 5 min or 1 min. Potential from transition and degree of crystallinity were evaluated by XRPD.

[4] = Grinding simulation experiments - wet grinding (granulation)
Experimental: Water or ethanol was added drop wise to about 20 mg of Form A, Form D, or Form T until solid was wetted sufficiently. Vortex was applied between each addition. Samples were dried under ambient condition for 10 min. Potential form transition and degree of crystallinity were evaluated by XRPD.

[5] = Bulk stability of crystalline forms; settings: for Purity, Bulk (HPLC): Solid state; for Initial purity: before stress, HPLC; for chemical stability and physical stability (bulk stability): stressed under 25° C./92 RH, 40% C/75% RH and 60° C., XRPD and HPLC
Text: (§1) Solids obtained after bulk stability study were characterized by XRPD and HPLC.

[6] = Equilibrium solubility in FeSSIF and FaSSIF; settings: 24 hours; for Solubility: target concentration 1 mg/mL, HPLC method 1 or 2 (footnote); for impurity in solubility sample: no unit printed for impurity (column head mg/mL)
Experimental: Solid part and liquid part were separated by filtration. Solubility was measured by HPLC. Solid part (wet cake) was investigated by XRPD.

[7] = Variable humidity and temperature XRPD experiments; remark: listed apart in the source
[8] = Bulk stability of crystalline forms; parameters: key: Color A: All No change of color; settings: Solid state
Text: as §1

[9] = Intrinsic dissolution rate (IDR) evaluation in FaSSIF; settings: FaSSIF at 37° C.
Experimental: Only one surface of the pellet was exposed (surface area=0.50 cm^2) to 900 mL FaSSIF, the dissolution medium. Temperature of chamber medium was set as 37±0.5° C. Shaft rotation as 100 rpm and sampling time points as 2 min, 5 min, 10 min, 15 min, 20 min, 25 min, 30 min, 35 min, 40 min, 50 min, 60 min, and 120 min. 2 mL sample solution was withdrawn at each time point and centrifuged at 14,000 rpm for 5 min to isolate supernatant. Then concentration of the supernatant was analyzed by HPLC. After 120 min, XRPD of disc surface was measured.

[10] = 25° C./92% RH, open container, 1 week
[11] = 25° C./92% RH, open container, 2 weeks
[12] = 40° C./75% RH, open container, 1 week
[13] = 40° C./75% RH, open container, 2 weeks
[14] = 60° C., tight container, 1 week
[15] = 60° C., tight container, 2 weeks
[16] = 25° C./92% RH, open container, 4 weeks
[17] = 40° C./75% RH, open container, 4 weeks
[18] = 60° C., tight container, 4 weeks

For Nc1nc(=O)n(-c2ccccc2Cl)c2nc(C(F)(F)F)ccc12 [Form D, 4-Amino-1-(2-chlorophenyl)-7-(trifluoromethyl)pyrido[2,3-d]pyrimidin-2(1H)-one], the “humidity at which water is absorbed again / water content restored (conversion back to the hydrate)” value ([1]; DVS and variable humidity XRPD, 25° C.) was “higher than 20 % RH”, the hygroscopicity [1] was “slightly hygroscopic” and the water uptake ([1]; DVS, from 40% to 95% RH, 25° C.) was “about 0.9%”. The “form change after the DVS test” value [1] was “No form change”, the “XRPD (XRPD method 2)” value ([2]; VT13 25° C./55% RH (final)) was “Form D” and the “temperature above which the form starts to lose water” value ([2]; based on DSC results) was “higher than 46 °C”. The “dehydration product (form obtained on loss of water)” value ([2]; low humidity or heating above the dehydration temperature) was “Form S”, the “XRPD after dry grinding” value ([3]; Dry grinding for 1 min) was “substantially amorphous” and the “XRPD after dry grinding” value ([3]; Dry grinding for 5 min) was “substantially amorphous”. The “tolerance to dry grinding” value [3] was “poor tolerance”, the “XRPD after wet grinding” value ([4]; Ethanol) was “substantially amorphous” and the “XRPD after wet grinding” value ([4]; Water) was “No form change”. The “form change after granulation with water” value ([4]; wet grinding, XRPD) was “no form change”, the “tolerance to granulation with ethanol or water” value ([4]; wet grinding, XRPD) was “poor tolerance” and the “tolerance to granulation with water” value ([4]; wet grinding, XRPD) was “good tolerance”. For the same molecule, the “Purity, Bulk (HPLC)” value [5, 10] was 98.0%, the “Purity, Bulk (HPLC)” value [5, 11] was 98.0% and the “Purity, Bulk (HPLC)” value [5, 12] was 98.1%. The “Purity, Bulk (HPLC)” value [5, 13] was 98.2%, the “Purity, Bulk (HPLC)” value [5, 14] was 98.1% and the “Purity, Bulk (HPLC)” value [5, 15] was 97.8%. The Initial purity [5] was 98.0%, the “chemical stability and physical stability (bulk stability)” value [5] was “good chemical stability and physical stability” and the “XRPD of solid after solubility test” value ([6]; FaSSIF, pH 6.5, 37° C.) was “Form D”. For the same molecule, the “final pH” value ([6]; FaSSIF, pH 6.5, 37° C.) was 6.6, the Solubility ([6]; FaSSIF, pH 6.5, 37° C.) was 0.09 mg/mL (≈ 264 µM) and the “impurity in solubility sample” value ([6]; FaSSIF, pH 6.5, 37° C.) was “no impurity”. For the same molecule, the “XRPD of solid after solubility test” value ([6]; FeSSIF, pH 5.0, 37° C.) was “Form D”, the “final pH” value ([6]; FeSSIF, pH 5.0, 37° C.) was 5.2 and the Solubility ([6]; FeSSIF, pH 5.0, 37° C.) was 0.21 mg/mL (≈ 616 µM). For the same molecule, the “impurity in solubility sample” value ([6]; FeSSIF, pH 5.0, 37° C.) was “no impurity”, the “XRPD (XRPD method 2)” value ([7]; VRH1 21° C./50% RH (initial)) was “Form D” and the “XRPD (XRPD method 2)” value ([7]; VRH2 21° C./90% RH (3 h)) was “Form D”. For the same molecule, the “XRPD (XRPD method 2)” value ([7]; VRH3 21° C./60% RH (2 h)) was “Form D”, the “XRPD (XRPD method 2)” value ([7]; VRH4 21° C./40% RH (2 h)) was “Form D” and the “XRPD (XRPD method 2)” value ([7]; VRH5 21° C./20% RH (3 h), desorption) was “Form D”. For the same molecule, the “XRPD (XRPD method 2)” value ([7]; VRH6 21° C./10% RH (3 h), desorption) was “Form S”, the “XRPD (XRPD method 2)” value ([7]; VRH7 21° C./0% RH (6 h)) was “Form S” and the “XRPD (XRPD method 2)” value ([7]; VRH8 21° C./10% RH (3 h), after 0% RH) was “Form S”. For the same molecule, the “XRPD (XRPD method 2)” value ([7]; VRH9 21° C./20% RH (3 h), after 0% RH) was “Form S”, the “XRPD (XRPD method 2)” value ([7]; VRH10 21° C./50% RH (final)) was “Form D” and the “XRPD (XRPD method 2)” value ([7]; VT9 25° C./55% RH (initial)) was “Form D”. The “XRPD (XRPD method 2)” value ([7]; VT10 130° C./55% RH (10 min)) was “Form S”, the “XRPD (XRPD method 2)” value ([7]; VT11 25° C./N2 protection (10 min)) was “Form S” and the “XRPD (XRPD method 2)” value ([7]; VT12 25° C./55% RH (3 h)) was “Form D”. For the same molecule, the Color [8, 10] was “A”, the Color [8, 11] was “A” and the Color [8, 12] was “A”. The Color [8, 13] was “A”, the Color [8, 14] was “A” and the Color [8, 15] was “A”.

In the case of Nc1nc(=O)n(-c2ccccc2Cl)c2nc(C(F)(F)F)ccc12 [Form T, 4-Amino-1-(2-chlorophenyl)-7-(trifluoromethyl)pyrido[2,3-d]pyrimidin-2(1H)-one], the hygroscopicity [1] is reported as “slightly hygroscopic”, the “form change after the DVS test” value [1] is reported as “No form change” and the “XRPD after dry grinding” value ([3]; Dry grinding for 5 min) is reported as “substantially amorphous”. For the same molecule, the “tolerance to dry grinding” value [3] was “poor tolerance”, the “XRPD after wet grinding” value ([4]; Water) was “No form change” and the “form change after granulation with water” value ([4]; wet grinding, XRPD) was “no form change”. For the same molecule, the “tolerance to granulation with water” value ([4]; wet grinding, XRPD) was “good tolerance”, the “Purity, Bulk (HPLC)” value [5, 10] was 99.1% and the “Purity, Bulk (HPLC)” value [5, 11] was 99.0%. For the same molecule, the “Purity, Bulk (HPLC)” value [5, 16] was 98.9%, the “Purity, Bulk (HPLC)” value [5, 12] was 98.9% and the “Purity, Bulk (HPLC)” value [5, 13] was 98.7%. The “Purity, Bulk (HPLC)” value [5, 17] was 98.3%, the “Purity, Bulk (HPLC)” value [5, 14] was 99.1% and the “Purity, Bulk (HPLC)” value [5, 15] was 99.0%. The “Purity, Bulk (HPLC)” value [5, 18] was 98.7%, the Initial purity [5] was 99.1% and the “chemical stability and physical stability (bulk stability)” value [5] was “good chemical stability and physical stability”. The “XRPD of solid after solubility test” value ([6]; FaSSIF, pH 6.5, 37° C.) was “Form T”, the “final pH” value ([6]; FaSSIF, pH 6.5, 37° C.) was 6.5 and the Solubility ([6]; FaSSIF, pH 6.5, 37° C.) was 0.08 mg/mL (≈ 235 µM). The “XRPD of solid after solubility test” value ([6]; FeSSIF, pH 5.0, 37° C.) was “Form T”, the “final pH” value ([6]; FeSSIF, pH 5.0, 37° C.) was 5.0 and the Solubility ([6]; FeSSIF, pH 5.0, 37° C.) was 0.16 mg/mL (≈ 470 µM). For the same molecule, the “XRPD after IDR” value ([9]; disc surface after 120 min) was “No form change”, the “Concentration detected during IDR test (Comments)” value ([9]; for Form V and Form A remains same during the whole process, LOQ for Form T and amorphous form) was “<LOQ (0.0003 mg/mL” and the Color [8, 10] was “A”. For the same molecule, the Color [8, 11] was “A”, the Color [8, 16] was “A” and the Color [8, 12] was “A”. For the same molecule, the Color [8, 13] was “A”, the Color [8, 17] was “A” and the Color [8, 14] was “A”. For the same molecule, the Color [8, 15] was “A” and the Color [8, 18] was “A”.
